# Data from article PMC9837035 (Nature Communications, 2023).
# pIC50, pKd: −log10 of the molar value. Values joined by “and” are separate entries in the source; they are usually repeats but may differ in a detail not shown here. Equal entries are not always repeated. Where two headings read alike, the source gives them in different places.
# What was measured:
# [1] = tested on: BCL11A- or ZBTB7A-knockout HUDEP-2 cells; assay: RT-qPCR of BGLT3, β- and γ-globin in BCL11A- or ZBTB7A-knockout HUDEP-2 cells; type: cell-based, human
# Experimental: (§1) Total cellular RNA was prepared using the Tissue Total RNA Mini Kit (FAVORGEN), and cDNA was synthesized using ReverTra Ace Master Mix (TOYOBO). Expression of target genes was analyzed using THUNDERBIRD SYBR qPCR Mix (TOYOBO) on a CFX Connect Real Time System (Bio-Rad). The qPCR data were acquired on CFX Maestro (Bio-Rad). Primers are listed in Supplementary Table 10. GAPDH was used as a reference. Primers were purchased from INTEGRATED DNA TECHNOLOGIES or FASMAC.
# [2] = tested on: β- and γ-globin mRNAs in CD34+-derived cells; assay: RT-qPCR of β- and γ-globin in CD34+-derived cells; type: cell-based, human
# Experimental: HUDEP-2 cells and HiDEP-1 cells were grown in Stemline II Hematopoietic Stem Cell Expansion Medium (Sigma) supplemented with 50 ng/mL recombinant stem cell factor (SCF; R&D systems), 3 IU/mL recombinant erythropoietin (EPO; Kyowa Kirin), 1 μM dexamethasone (Dex; Sigma), and 1 μg/mL doxycycline (Sigma). A total of 1 × 10^5 human CD34^+ progenitor cells derived from bone marrow or peripheral blood (Lonza) were cultured on 35-mm dishes (BD Falcon) in StemSpan SFEMII medium with 50 ng/mL SCF, 5 IU/mL EPO, and 10 ng /mL interleukin 3 (IL-3; R&D systems). The medium was changed on day 4 to SCF, EPO, and 1 μM Dex, and the cells were transferred to 60-mm dishes (BD Falcon). Seven days after the onset of differentiation, cells were counted and 1 × 10^6 cells were re-plated on 100-mm dishes (BD Falcon) with SCF, EPO, and Dex. The rat myoblast cell line H9c2, HEK293T, and PLAT-E cells were maintained in Dulbecco’s modified Eagle’s medium (Thermo Fisher Scientific) supplemented with 10% heat-inactivated fetal bovine serum (FBS) and penicillin/streptomycin. All cells were cultured at 37 °C under 5% CO2.
# as §1
# G9a SET domain = target: T1, G9a SET domain (Homo sapiens, UniProt Q96KQ7); assay: Surface plasmon resonance (SPR); type: binding
# T1 construct: the human G9a SET domain (residues 913–1193) was synthesized using the E. coli cell-free synthesis method; made in house; host or cells: E. coli cell-free synthesis
# T1 sequence (Q96KQ7 913-1193): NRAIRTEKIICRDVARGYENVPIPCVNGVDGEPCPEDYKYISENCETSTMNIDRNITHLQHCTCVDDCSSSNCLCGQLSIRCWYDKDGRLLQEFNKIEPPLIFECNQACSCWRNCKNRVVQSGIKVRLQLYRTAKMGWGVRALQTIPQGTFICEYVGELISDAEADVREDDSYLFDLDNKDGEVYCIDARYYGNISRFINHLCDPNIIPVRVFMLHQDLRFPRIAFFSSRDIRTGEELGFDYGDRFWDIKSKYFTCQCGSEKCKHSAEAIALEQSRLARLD
# Experimental: For crystal structure analysis, the human G9a SET domain (residues 913–1193) was synthesized using the E. coli cell-free synthesis method[48],[49] and purified in the same manner as described previously, except that the final size-exclusion column chromatography using HiLoad Superdex 200 16/60 (GE Healthcare) was equilibrated with 20 mM Tris-HCl buffer (pH 8.0) containing 400 mM NaCl. […] Crystals were grown by the hanging drop method at 293 K, where the sample solution was mixed with an equal volume of a reservoir solution containing 100 mM Bis-Tris propane (pH 7.4), 200 mM sodium formate, 10% ethylene glycol, and 25% PEG 3350. The harvested crystals were coated with Paratone-N oil (Hampton Research) before being flash-cooled in liquid nitrogen. Diffraction data were collected at the X06DA beamline of the Swiss Light Source, Paul Scherrer Institut (Villigen, Switzerland), and were processed and scaled with XDS[51], AIMLESS[52], and other CCP4 programs. The structure of G9a with UNC0638 (PDB ID: 3RJW)[23] was used for the initial phase determination by the molecular replacement method with Phaser[53]. The topology and parameter file for the inhibitor was generated with eLBOW[54] from SMILES strings. Structure refinement was carried out with Phenix[55] and manual model building using COOT[56]. Crystallographic statistics are summarized in Supplementary Table 3.
# SPR was performed using a Biacore T200 (Cytiva) and Series S Sensorchip SA (Cytiva, BR100531) at the temperature of 25 °C. A solution of PBS, 0.005% TWEEN20 (Sigma, P9416), 0.5 mM TCEP (Nacalai Tesque, 06342-21), and 2% DMSO (Sigma, 276855) was filtered with a 0.22-μm filter and used as the running buffer. Kinetic measurements were carried out at a flow rate of 30 μL/min, and the association and dissociation phases were monitored for 120 s and 120–300 s, respectively. The G9a SET domain was biotinylated by using NHS-PEG4-Biotin (Thermo, 39259), and captured to flow cells 2, 3, and 4 with immobilization levels of ~2300 RU. No specific treatment was applied to the reference surface (flow cell 1). To prevent oxidation of the immobilized protein, a solution containing 1 μM ZnCl2 and 5 mM TCEP was injected at a flow rate of 10 μL/min for 60 s before each set of kinetic measurements. The extra wash command was executed after each measurement cycle with 50% DMSO aqueous solution. To correct for bulk responses, solvent correction was performed once after all kinetics runs by using running buffer containing 1–3% DMSO. The sensorgrams obtained from the three flow cells were analyzed individually by Biacore T200 Evaluation Software (Cytiva). The dissociation constant (KD) and binding kinetic parameters were calculated by a curve fit to a built-in 1:1 binding model.
# [3] = Cell viability assay (WST-8), H9c2; type: cell-based, rat; details: rat, H9c2 myoblast cells, control (0 μM) = 100
# Experimental: (§2) A WST-8 (2-(2-methoxy-4-nitrophenyl)-3-(4-nitrophenyl)-5-(2,4-disulfophenyl)-2H-tetrazolium) assay using a Cell Counting Kit-8 (DOJINDO) was performed to measure cell viability using an EnSpire microplate reader (PerkinElmer).
# [4] = tested on: rat myoblast cell line H9c2; assay: Cell viability assay (WST-8), H9c2; type: cell-based; details: for cell viability in H9c2 cells: control (0 μM) = 100
# Experimental: as §2
# PRMT6 = PRMT6 (Homo sapiens, UniProt Q96LA8); assay: Radioisotope-based methyltransferase assay (selectivity)
# PRMT6, sequence (Q96LA8 whole entry): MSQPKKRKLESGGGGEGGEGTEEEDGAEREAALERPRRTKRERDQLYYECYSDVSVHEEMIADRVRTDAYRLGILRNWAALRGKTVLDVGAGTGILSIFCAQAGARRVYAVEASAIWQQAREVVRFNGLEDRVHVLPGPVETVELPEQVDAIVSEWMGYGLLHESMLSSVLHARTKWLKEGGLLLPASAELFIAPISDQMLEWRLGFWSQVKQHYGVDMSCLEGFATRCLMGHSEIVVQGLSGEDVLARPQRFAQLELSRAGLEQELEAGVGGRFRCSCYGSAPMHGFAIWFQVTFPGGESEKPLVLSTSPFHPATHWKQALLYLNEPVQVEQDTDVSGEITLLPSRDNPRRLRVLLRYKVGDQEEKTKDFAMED
# [5] = BCL11AKO, relative to Parental DMSO = 1, replicate values
# [6] = ZBTB7AKO, relative to Parental DMSO = 1, replicate values
# [7] = CD34+-derived cells, day 10, 10 μM
# [8] = single run, read-out: Dissociation constant (Kd)
smiles,measurement,setting,value
"NC(=O)NO [Hydroxyurea, hydroxyurea]",β-globin in hydroxyurea-treated BCL11A-knockout HUDEP-2 cells,[1]; [5],0.8331 and 0.6286 and 0.8387
same,γ-globin in hydroxyurea-treated BCL11A-knockout HUDEP-2 cells,[1]; [5],30.3873 and 19.1624 and 29.0192
same,BGLT3 expression,"[1]; Left panel, BCL11AKO HUDEP-2 cells treated with hydroxyurea, Parental DMSO = 1, 3 replicates",4.086 and 4.522 and 3.744
same,BGLT3 expression,"[1]; Left panel, ZBTB7AKO HUDEP-2 cells treated with hydroxyurea, Parental DMSO = 1, 3 replicates",7.409 and 8.146 and 6.041
same,BGLT3 expression,"[1]; Right panel, BCL11AKO HUDEP-2 cells treated with hydroxyurea, DMSO of the same cells = 1, 3 replicates",0.9046 and 1.002 and 0.9124
same,BGLT3 expression,"[1]; Right panel, ZBTB7AKO HUDEP-2 cells treated with hydroxyurea, DMSO of the same cells = 1, 3 replicates",1.218 and 1.432 and 1.28
same,β-globin in hydroxyurea-treated ZBTB7A-knockout HUDEP-2 cells,[1]; [6],0.1643 and 0.09952 and 0.1527
same,γ-globin in hydroxyurea-treated ZBTB7A-knockout HUDEP-2 cells,[1]; [6],16.1366 and 9.002 and 13.1897
same,Relative expression of β-globin mRNA,[2]; [7],1.124 and 0.7862 and 0.5724
same,Relative expression of γ-globin mRNA,[2]; [7],2.644 and 2.524 and 1.672
Cc1c(C(=O)NC(CCC2CC2)C(=O)Nc2ccc(C#N)cc2)[nH]c2c1C(=O)CC(C)(C)C2 (stereo not drawn) [RK-701],binding to G9a by SPR,G9a SET domain,reversible binding
same,pKd,"G9a SET domain; absence of SAM, read-out: Kd",6.12
same,pKd,"G9a SET domain; earlier SPR conditions, peer review file, read-out: Kd before re-analysis",5.62
same,pKd,G9a SET domain; [8],6.13 and 6.14 and 6.12
same,viability at 0.039 μM,[3],101%
same,viability at 0.156 μM,[3],95.6%
same,cell viability in H9c2 cells,[4]; 0.039 μM,91.465 and 104.927
same,cell viability in H9c2 cells,[4]; 0.156 μM,91.465 and 106.022
same,cell viability in H9c2 cells,[4]; 0.625 μM,97.754 and 88.280 and 116.423
same,cell viability in H9c2 cells,[4]; 2.5 μM,95.509 and 92.994 and 114.051
same,cell viability in H9c2 cells,[4]; 10.0 μM,145.310 and 89.427 and 118.431
same,cytotoxic effect on viability,"[4]; H9c2, 5 days",essentially no cytotoxic effect
same,BGLT3 expression,"[1]; BCL11A KO HUDEP-2 cells treated with RK-701, parental DMSO = 1, replicates 1a-3b",6.941 and 5.75 and 6.485 and 4.87 and 5.182 and 3.691
same,BGLT3 expression,[1]; BCL11A knockout HUDEP-2,could no longer increase BGLT3 expression
same,BGLT3 expression,"[1]; ZBTB7A KO HUDEP-2 cells treated with RK-701, parental DMSO = 1, replicates 1a-3b",4.7282 and 5.8001 and 5.631 and 4.239 and 5.932 and 4.543
same,BGLT3 expression,[1]; ZBTB7A knockout HUDEP-2,prevented RK-701 from increasing BGLT3 expression
same,γ-globin mRNA expression,[2]; primary human CD34+ hematopoietic cells,significantly increased
same,pIC50,PRMT6,< 4.00
Cc1c(C(=O)N[C@H](CCC2CC2)C(=O)Nc2ccc(C#N)cc2)[nH]c2c1C(=O)CC(C)(C)C2 [RK-0133114],binding to G9a by SPR,G9a SET domain,failed to detect the binding
same,pKd,"G9a SET domain; mean of three kinetics runs, read-out: KD",< 4.70
same,pKd,G9a SET domain; [8],< 4.70
same,viability at 0.039 μM,[3],89.5%
same,viability at 0.156 μM,[3],100%
same,viability at 0.625 μM,[3]; 0.625 μM,116%
same,viability at 2.5 μM,[3]; 2.5 μM,85.5%
same,viability at 10 μM,[3]; 10.0 μM,106%
same,cell viability in H9c2 cells,[4]; 0.039 μM,95.980 and 104.160
same,cell viability in H9c2 cells,[4]; 0.156 μM,93.342 and 91.200
same,cell viability in H9c2 cells,[4]; 0.625 μM,99.497 and 102.560
same,cell viability in H9c2 cells,[4]; 2.5 μM,93.970 and 103.040
same,cell viability in H9c2 cells,[4]; 10.0 μM,89.573 and 98.080
"Nc1ncnc2c1ncn2[C@@H]1O[C@H](CSCC[C@H](N)C(=O)O)[C@@H](O)[C@H]1O [SAH, S-(5'-Adenosyl)-L-homocysteine, reference compound]",pIC50,"PRMT6; IC50, PRMT6, 1 μM SAM",6.39
